Measured values published in patent US12036199B1 (Dynamic Biologics Inc., priority 2023, dated 2024).
Values belong to the compound of their own block, whether it stands above or below them.

What was measured:
[1] = cited from earlier work
[2] = In vitro stability of 10 μM DB104 incubated in fresh human plasma (HRMS / LC-MS detection of DB104, intermediates and L-DOPA); assay type: in vitro ADME; conditions: for half-life at 10 μM: human, fresh human plasma; for degradation product of DB104 observed in human plasma: human plasma incubation of DB104
Protocol: (§1) 10 μM DB104 (DB104 is identified above and is one of the Derivatives of the present invention) was incubated in fresh plasma and phosphate buffer saline (PBS) in multiple aliquots, and each aliquot was divided into two equal halves at the following time points: 0, 1, 2, 4, 6, 24, 48, 72, 96, 120, 144, 168, 192, 216, 240, and 264 h. The first half was quenched with ACN:MeOH containing 1% formic acid and analyzed on the high-resolution mass spectroscopy (HRMS) to detect DB104 and all other possible intermediates. Labetalol was used as internal standard (IS). The other half was quenched with perchloric acid and analyzed on an AB Sciex 7500 mass spectrometer to detect L-DOPA. Dopamine-d4 will be used as IS.
(§2) Possible intermediates structures from the steps above are as follows:
(§3) DB104 took about 4 h and 1-4 h to get fully solubilized in human plasma and PBS, respectively. This was evident by initial increase in peak area followed by degradation. All peak area ratios were normalized to the max peak area ratio value observed. […] DB104M2 was not observed in either human plasma or PBS.

[3] = In vitro stability of 10 μM DB104 incubated in phosphate buffer saline (PBS); assay type: physicochemical; conditions: for half-life at 10 μM: phosphate buffer saline (PBS)
Protocol: as §1, §2, §3

[4] = Phase III clinical trials; cited from earlier work
[5] = cited from earlier work; remark: listed apart in the source

degradation product of DB104 observed in human plasma [2]: observed in PBS only | degradation product of DB104 observed in PBS ([3]; PBS incubation of DB104): observed in PBS only
SMILES: CCCCCCCCCCCC(=O)Oc1ccc(CC(N)C(=O)O)cc1OC(=O)CCCCCCCCCCC (stereo not shown) [DB104M1]

degradation product of DB104 observed in human plasma [2]: not observed | degradation product of DB104 observed in PBS ([3]; PBS incubation of DB104): not observed
SMILES: CCCCCCCCCCCC(=O)Oc1cc(CC(N)C(=O)O)ccc1O (stereo not shown) [DB104M2]

degradation product of DB104 observed in human plasma [2]: observed | degradation product of DB104 observed in PBS ([3]; PBS incubation of DB104): observed
SMILES: CCCCCCCCCCCCOC(=O)C(N)Cc1ccc(O)c(O)c1 (stereo not shown) [DB104M3]

degradation product of DB104 observed in human plasma [2]: observed | degradation product of DB104 observed in PBS ([3]; PBS incubation of DB104): observed | rank of degradant in PBS ([3]; PBS incubation of DB104): major degradant
SMILES: CCCCCCCCCCCCOC(=O)C(N)Cc1ccc(O)c(OC(=O)CCCCCCCCCCC)c1 (stereo not shown) [DB104M4]

More lines, now with the values behind:

SMILES: C[C@@](Cc1ccc(O)c(O)c1)(NN)C(=O)O [Carbidopa]
reduction of the amount of levodopa required to produce a given response ([1]; carbidopa administered with levodopa): 75%

SMILES: CCCCCCCCCCCCOC(=O)[C@@H](N)Cc1ccc(OC(=O)CCCCCCCCCCC)c(OC(=O)CCCCCCCCCCC)c1 [DB104, (S)-4-(2-amino-3-(dodecyloxy)-3-oxopropyl)-1,2-phenylene didodecanoate]
time to get fully solubilized in human plasma ([2]; human plasma, initial increase in peak area): about 4 h | half-life at 10 μM ([2]; 10 μM DB104, fresh human plasma, 0-264 h, read-out: In vitro half-life in human plasma (converted)): 13.1 ± 1.4 h | half-life at 10 μM ([2]; human plasma, summary estimate, read-out: in vitro half-life estimated, human plasma (converted)): ~12 h | time over which L-DOPA is formed at detectable amounts, PBS ([3]; L-DOPA formed from DB104 in PBS): up to 72 h | time to get fully solubilized in PBS ([3]; PBS, initial increase in peak area): 1 to 4 h | half-life at 10 μM ([3]; 10 μM DB104, PBS, 0-264 h, read-out: In vitro half-life in PBS (converted)): 12.4 ± 2.6 h | half-life at 10 μM ([3]; PBS, summary estimate, read-out: in vitro half-life estimated, PBS (converted)): ~12 h

SMILES: CCOC(=O)[C@@H](N)Cc1ccc(O)c(O)c1 [Etilevodopa]
efficacy compared with Levodopa [4]: less efficacious than Levodopa

SMILES: N[C@@H](Cc1ccc(O)c(O)c1)C(=O)O [Levodopa, (S)-2-amino-3-(3,4-dihydroxyphenyl)propanoic acid, reference compound]
degradation product of DB104 observed in human plasma [2]: observed | degradation product of DB104 observed in PBS ([3]; PBS incubation of DB104): observed | Plasma half-life of levodopa alone [5]: ~0.833 h

SMILES: CCN(CC)C(=O)/C(C#N)=C/c1cc(O)c(O)c([N+](=O)[O-])c1 [entacapone]
increase of levodopa plasma exposure ([1]; 200 mg entacapone co-administered with levodopa/carbidopa): 35-40%
